Reference: the supplement of paper PMC10307832

Legend:
Test in all cases: relative viability (nuclei count vs DMSO), 5 days (fraction); higher = more cells survive
[1] = compound: CC1CC(=O)N(C2=CN=C(N=C2N1C3CCCC3)NC4=C(C=C(C=C4)C(=O)NC5CCN(CC5)C)OC)C [NPK76-II-72-1] + Cc1cc(Nc2cc(N3CCN(C)CC3)nc(Sc3ccc(NC(=O)C4CC4)cc3)n2)n[nH]1 [Tozasertib] (partner 0.1 µM)
Summary of the method: (§1)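 Cells from lung cancer lines were seeded into 1536-well plates and, one day later, dosed by pin tool. Treatments were either a single drug or a fixed dose of an anchor drug with five library-drug doses (not always all listed) in √10 steps. After 5 days, nuclei were stained in a one-step fixation (final 0.05% Triton X-100, 1% formaldehyde, 1 ug/ml Hoechst) and counted on 4× images, and relative viability is the treated-to-vehicle nuclei ratio, as the median of duplicate plates.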

[2] = compound: CC[C@@H]1C(=O)N(C)c2cnc(Nc3ccc(C(=O)NC4CCN(C)CC4)cc3OC)nc2N1C1CCCC1 [BI-2536] + N=C(N)NC(=N)NCCc1ccccc1 [Phenformin] (partner 250 µM)
Summary of the method: as §1

[3] = compound: CC1CC(=O)N(C2=CN=C(N=C2N1C3CCCC3)NC4=C(C=C(C=C4)C(=O)NC5CCN(CC5)C)OC)C [NPK76-II-72-1] + COc1cccc2cc(-c3nc([C@H]4CC[C@H](C(=O)O)CC4)n4ncnc(N)c34)[nH]c12 [OSI-027] (partner 0.5 µM)
Summary of the method: as §1

[4] = compound: CC1CC(=O)N(C2=CN=C(N=C2N1C3CCCC3)NC4=C(C=C(C=C4)C(=O)NC5CCN(CC5)C)OC)C [NPK76-II-72-1] + Cc1nc(Nc2ncc(C(=O)Nc3c(C)cccc3Cl)s2)cc(N2CCN(CCO)CC2)n1 [Dasatinib] (partner 0.075 µM)
Summary of the method: as §1

UMC-11
relative viability ([1]; first compound 0.01 µM): 0.197 | relative viability ([1]; first compound 0.03162 µM): 0.186 | relative viability ([1]; first compound 0.1 µM): 0.197 | relative viability ([1]; first compound 1 µM): 0.205 | relative viability ([2]; first compound 0.01 µM): 0.286 | relative viability ([2]; first compound 0.03162 µM): 0.233 | relative viability ([2]; first compound 0.1 µM): 0.177 | relative viability ([2]; first compound 0.3162 µM): 0.192 | relative viability ([2]; first compound 1 µM): 0.175 | relative viability ([3]; first compound 0.01 µM): 0.435 | relative viability ([3]; first compound 0.03162 µM): 0.424 | relative viability ([3]; first compound 0.1 µM): 0.521 | relative viability ([3]; first compound 1 µM): 0.47 | relative viability ([4]; first compound 0.01 µM): 0.45 | relative viability ([4]; first compound 0.03162 µM): 0.509 | relative viability ([4]; first compound 0.1 µM): 0.441 | relative viability ([4]; first compound 1 µM): 0.447
